Results: patent EP0998480B1, “NUCLEOTIDE ANALOG COMPOSITION AND SYNTHESIS METHOD” (GILEAD SCIENCES, INC., priority 1997, dated 1999)

Legend:
[1] = hygroscopicity at 92% relative humidity; assay type: physicochemical; conditions: crystals kept at 92% relative humidity and room temperature for up to 37 days
[2] = solid state chemical stability on storage at elevated temperature and relative humidity; assay type: physicochemical; conditions: for BPPF% / mono(POC) PMPA fumarate%: 75% relative humidity, 0 days; for mono(POC) PMPA fumarate%: degradation product in stored BPPF
From the text: The solid state chemical stability of cBPPF and bis(POC)PMPA•citrate salt was compared by analyzing each compound after storage under different conditions.

[3] = human, in vivo

## 9-[2-(R)-[[Bis[[(isopropoxycarbonyl)oxy]methoxy]phosphinoyl]methoxy]propyl]adenine• fumaric acid [BPPF]
[1]
  hygroscopicity: not hygroscopic
[2]; 40°C
  BPPF%: 99.0%
  mono(POC) PMPA fumarate%: 1.0%
[2]; 60°C
  BPPF%: 99.0%
  mono(POC) PMPA fumarate%: 1.0%
[2]; powder, storage at elevated temperature and relative humidity
  solid state chemical stability compared with bis(POC)PMPA citrate salt: more stable
[3]
  oral bioavailability: 30-40%
